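Test compounds were applied to cells in 96-well plates for 48 hours at 5 doses. GI50 = concentration required for 50% inhibition of growth. Definition used: TGI = concentration required for complete inhibition of growth.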
Columns and labels:
Assay in all cases: NCI tumour cell line growth inhibition, 48 h
HT29 colon = tested on: HT29 colon
RXF 393 renal = tested on: RXF 393 renal
K-562 leukemia = tested on: K-562 leukemia
A498 renal = tested on: A498 renal
TK-10 renal = tested on: TK-10 renal
SR leukemia = tested on: SR leukemia
OVCAR-8 ovarian = tested on: OVCAR-8 ovarian
DU-145 prostate = tested on: DU-145 prostate
MDA-MB-435 = tested on: MDA-MB-435
MCF7 breast = tested on: MCF7 breast

Row | SMILES | TGI (HT29 colon) [µM] | TGI (RXF 393 renal) [µM] | TGI (K-562 leukemia) [µM] | TGI (A498 renal) [µM] | TGI (TK-10 renal) [µM] | TGI (SR leukemia) [µM] | TGI (OVCAR-8 ovarian) [µM] | GI50 (HT29 colon) [µM] | GI50 (K-562 leukemia) [µM] | GI50 (A498 renal) [µM] | GI50 (TK-10 renal) [µM] | GI50 (OVCAR-8 ovarian) [µM] | TGI (DU-145 prostate) [µM] | TGI (MDA-MB-435) [µM] | GI50 (RXF 393 renal) [µM] | TGI (MCF7 breast) [µM] | GI50 (MDA-MB-435) [µM] | GI50 (MCF7 breast) [µM]
1 | ClC/C=C/COC1CCCCO1 (centres undefined) | > 100 | > 100 | > 100 | > 100 | > 100 | 54.2 | > 100 | – | – | – | – | – | – | – | – | – | – | –
2 | O=C1C=CC=C/C1=C1/SC(c2ccccc2)=C(O)N1c1ccccc1 | > 100 | > 100 | – | – | > 100 | – | > 100 | – | – | – | – | – | – | – | – | – | – | –
3 | C[CH2][Ge]([CH2]C)([CH2]C)[O]C(=O)C(OC(C)=O)c1ccccc1 (centres undefined) | > 100 | – | > 100 | > 100 | > 100 | – | > 100 | > 100 | > 100 | > 100 | > 100 | > 100 | – | – | – | – | – | –
4 | CN(C)c1ccc2oc(=O)c3ccccc3c2c1 | > 100 | 78.9 | > 100 | > 100 | > 100 | > 100 | > 100 | – | – | – | – | – | > 100 | > 100 | – | – | – | –
5 | CC1/C(=N\O)CC(c2ccccc2)N(C)C1c1ccccc1 (centres undefined) | > 100 | > 100 | > 100 | > 100 | > 100 | – | > 100 | – | – | – | – | – | – | – | – | – | – | –
6 | O=C([CH-]C(=O)c1ccccc1)c1ccccc1.[CH-]1CCCCC1.[CH-]1CCCCC1.[CH-]1CCCCC1.[Sn+4] | 38.5 | 10.1 | 6.15 | 28.9 | 26.1 | – | 55.4 | 14 | 2.31 | 15.4 | 12.1 | 5.47 | – | – | 2.71 | – | – | –
7 | O=C1CC(c2ccccc2)=Nc2ccccc2N1 | > 100 | > 100 | > 100 | > 100 | > 100 | > 100 | > 100 | – | – | – | – | – | – | – | – | – | – | –
8 | CCOP(=O)(OCC)C1CCCOC1=O (centres undefined) | > 100 | > 100 | > 100 | > 100 | > 100 | – | > 100 | – | – | – | – | – | – | – | – | – | – | –
9 | CCOC(=O)/C(=C/c1ccc(C(=O)OC)cc1)N(CC)CC | – | – | 82.7 | – | > 100 | > 100 | > 100 | – | – | – | – | – | – | – | – | – | – | –
10 | O=S(=O)(O)c1cc(O)c(N=Nc2ccc(O)cc2O)c2ccccc12 | > 100 | > 100 | > 100 | – | > 100 | > 100 | > 100 | – | – | – | – | – | – | > 100 | – | – | – | –
11 | Cc1cccc(C)c1NC(=O)C1=NC(=S)NC(c2ccccc2)C1c1nc2ccccc2s1 (centres undefined) | > 100 | > 100 | > 100 | > 100 | > 100 | > 100 | > 100 | – | – | – | – | – | – | – | – | – | – | –
12 | O=c1[nH]c2ccccc2nc1/C=C(\O)c1ccccc1O | > 100 | > 100 | > 100 | > 100 | > 100 | > 100 | > 100 | – | – | – | – | – | – | – | – | – | – | –
13 | CCOC(=O)Oc1cc2c(c(OC)c1OC)-c1ccc(OC)c(=O)cc1C(NC(C)=O)CC2 (centres undefined) | 13.2 | 0.564 | > 81.3 | 3.38 | > 100 | – | 19.7 | – | – | – | – | – | – | 0.0168 | – | > 100 | – | –
14 | C[N+](C)(C)CC(=O)N/N=C(/C(=O)Nc1ccc(Br)cc1)C1C(=O)NC(=O)NC1=O | > 100 | > 100 | > 100 | > 100 | > 100 | > 100 | – | – | – | – | – | – | – | – | – | – | – | –
15 | Cc1csc2[n+]1-c1ccccc1N(C(=O)Nc1ccccc1)C(C)C2 (centres undefined) | > 100 | > 100 | > 100 | – | > 100 | – | > 100 | 36.6 | > 100 | – | > 100 | > 100 | – | > 100 | 50.8 | > 100 | > 100 | 48.7
16 | O=C(CC1OC(O)C(Cl)=C1Cl)c1cccnc1 (centres undefined) | > 59.7 | > 100 | > 100 | > 100 | > 100 | > 100 | > 100 | – | – | – | – | – | – | – | – | – | – | –
17 | CN(C)CCNC(=O)c1cccc2cc3c(Cl)cccc3nc12 | 6.94 | 3.62 | 4.04 | 3.21 | 7.66 | 14.8 | > 20.3 | – | – | – | – | – | – | – | – | – | – | –
18 | COCN1COCN=C1NC#N | > 100 | > 100 | > 100 | > 100 | > 100 | > 100 | > 100 | – | – | – | – | – | – | – | – | – | – | –
19 | CC1=C(C(=O)Nc2ccccc2)C(c2cccc3ccccc23)C(C(=O)Nc2ccccc2)=C(C)N1 | 36.2 | 29.2 | 72.5 | 48.5 | 96.7 | 22.6 | 35.8 | – | – | – | – | – | – | – | – | – | – | –
20 | CN(C)C(=N/O)/C(=N\O)N(C)C | > 100 | > 100 | > 100 | > 100 | > 100 | > 100 | > 100 | – | – | – | – | – | – | – | – | – | – | –
